The values that follow come from ChEMBL document CHEMBL4699654, “Computational Fragment-Based Design Facilitates Discovery of Potent and Selective Monoamine Oxidase-B (MAO-B) Inhibitor” (J Med Chem, 2020).

For assay [1], the target named is T1, Amine oxidase [flavin-containing] B (Homo sapiens, UniProt P27338).
T1 sequence (P27338 whole entry): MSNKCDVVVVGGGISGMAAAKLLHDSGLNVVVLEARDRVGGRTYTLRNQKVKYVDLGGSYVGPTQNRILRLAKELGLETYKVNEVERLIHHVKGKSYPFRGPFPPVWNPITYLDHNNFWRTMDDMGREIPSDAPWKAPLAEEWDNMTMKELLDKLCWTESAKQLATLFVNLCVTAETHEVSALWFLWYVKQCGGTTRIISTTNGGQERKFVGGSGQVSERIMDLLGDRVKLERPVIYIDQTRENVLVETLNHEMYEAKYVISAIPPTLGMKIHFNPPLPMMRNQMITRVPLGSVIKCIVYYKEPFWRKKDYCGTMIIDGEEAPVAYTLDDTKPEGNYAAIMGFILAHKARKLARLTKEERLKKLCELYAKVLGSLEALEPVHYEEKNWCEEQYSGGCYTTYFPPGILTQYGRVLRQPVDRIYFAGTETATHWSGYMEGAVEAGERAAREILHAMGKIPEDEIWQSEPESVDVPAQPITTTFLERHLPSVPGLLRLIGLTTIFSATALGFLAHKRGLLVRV
Briefly: Inhibition of recombinant human MAO-B expressed in Sf9 cells using benzylamine as substrate preincubated for 15 mins followed by substrate addition for 60 mins by Luminex assay. In kind it is cell-based.

The target of assay [2] is T2, Amine oxidase [flavin-containing] A (Homo sapiens, UniProt P21397).
T2 sequence (P21397 whole entry): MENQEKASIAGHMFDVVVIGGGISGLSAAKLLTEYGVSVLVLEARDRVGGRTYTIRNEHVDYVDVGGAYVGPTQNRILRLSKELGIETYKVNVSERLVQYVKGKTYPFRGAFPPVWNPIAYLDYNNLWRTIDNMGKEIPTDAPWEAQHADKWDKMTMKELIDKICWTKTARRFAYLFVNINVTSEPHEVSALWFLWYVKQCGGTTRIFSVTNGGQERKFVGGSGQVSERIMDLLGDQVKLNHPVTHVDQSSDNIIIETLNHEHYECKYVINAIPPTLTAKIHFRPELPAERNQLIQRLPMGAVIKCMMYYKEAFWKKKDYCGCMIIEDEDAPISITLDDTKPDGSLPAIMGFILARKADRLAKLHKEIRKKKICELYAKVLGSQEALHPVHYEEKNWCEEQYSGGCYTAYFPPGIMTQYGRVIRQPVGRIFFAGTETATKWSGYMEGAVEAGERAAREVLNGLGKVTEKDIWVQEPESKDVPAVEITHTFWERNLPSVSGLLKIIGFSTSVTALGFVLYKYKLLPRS
Description: Inhibition of recombinant human MAO-A expressed in Sf9 cells using p-tyramine as substrate preincubated for 15 mins followed by substrate addition for 60 mins by […] assay.

The species entered for assay [3] is Homo sapiens. Description: Selectivity index, ratio of IC50 for recombinant human MAO-A to IC50 for recombinant human MAO-B.

Consider `C#CCN(Cc1ccc(OCc2cccc(F)c2)cc1F)[C@@H](C)C(N)=O`, for which the IC50 (in general, the concentration needed to halve the response being measured) worked out at 93 nM in assay [1] and 8710 nM in assay [2]. In assay [3], the Ratio IC50 turned out to be 94.

As for `C#CCN(Cc1ccc(OCc2cccc(F)c2)cc1C)[C@@H](C)C(N)=O`, the values for the IC50 in assay [1] and in assay [2] were 320 nM and 6400 nM, respectively. Besides, in assay [3], the Ratio IC50 came to 20.

For the molecule `CC1(C)C[C@@H](C(N)=O)N(Cc2ccc(OCc3cccc(F)c3)cc2)C1`, the IC50 in assay [1] amounted to 1420 nM; in assay [2] it was 17500 nM. Further, in assay [3], the Ratio IC50 came to 12.

As to `NC(=O)[C@@H]1CCN1Cc1ccc(OCc2cccc(F)c2)cc1F`, the figures for the IC50 in assay [1] and in assay [2] were 26 nM and 18600 nM, respectively. The Ratio IC50 in assay [3] worked out at 715.

For the molecule `NC(=O)C1CCN1Cc1ccc(OCc2cccc(F)c2)cc1` (racemic), the IC50 in assay [1] turned out to be 46 nM; in assay [2] it was 18000 nM. Further, the Ratio IC50 in assay [3] stood at 391.

Regarding `C[C@H](NCc1ccc(OCc2cccc(F)c2)cc1)C(=O)NCCN1CCOCC1`, the IC50 in assay [1] was greater than 10000 nM.

Regarding `C#CCN(C)C(=O)[C@H](C)NCc1ccc(OCc2cccc(F)c2)cc1`, the IC50 in assay [1] is greater than 10000 nM.

Turning to `C[C@H](NCc1ccc(OCc2cccc(F)c2)cc1Cl)C(N)=O`, the IC50 was 28 nM in assay [1] and 12000 nM in assay [2]. The Ratio IC50 in assay [3] is 427.

For `CC1(C)C[C@@H](C(N)=O)N(Cc2ccc(OCc3cccc(F)c3)cc2F)C1`, the 50% inhibitory concentration (IC50) in assay [1] came to 6350 nM.

With `C#CCN(Cc1ccc(OCc2cccc(F)c2)cc1Cl)[C@@H](C)C(N)=O`, the results for the IC50 in assay [1] and in assay [2] were 68 nM and 5590 nM, respectively. For the same molecule, in assay [3], the Ratio IC50 was 82.

Consider `NC(=O)[C@@H]1CCN1Cc1ccc(OCc2cccc(F)c2)cc1Cl`, for which the IC50 in assay [1] is 35 nM; in assay [2] it was 2130 nM. The Ratio IC50 in assay [3] is 61.

Regarding `NC(=O)C1CN(Cc2ccc(OCc3cccc(F)c3)cc2)C1`, the IC50 in assay [1] was 1420 nM; in assay [2] it was greater than 10000 nM. The Ratio IC50 in assay [3] was greater than 7.

As to `C#CCN(Cc1ccc(OCc2cccc(F)c2)cc1)[C@@H](C)C(N)=O`, the IC50 was 530 nM in assay [1] and 7790 nM in assay [2]. In addition, the Ratio IC50 in assay [3] was found to be 15.

For `C[C@H](NCc1ccc(OCc2cccc(F)c2)cc1C1CC1)C(N)=O`, the values for the IC50 in assay [1] and in assay [2] were 1660 nM and 75200 nM, respectively. Moreover, the Ratio IC50 in assay [3] is 45.

For the molecule `C[C@H](NCc1ccc(OCc2cccc(F)c2)cc1F)C(N)=O`, the IC50 in assay [1] is 61 nM; in assay [2], greater than 10000 nM. Moreover, in assay [3], the Ratio IC50 is greater than 163.

As for `Cc1cc(OCc2cccc(F)c2)ccc1CN[C@@H](C)C(N)=O`, the IC50 in assay [1] is 69 nM; in assay [2], greater than 10000 nM. In addition, in assay [3], the Ratio IC50 is greater than 140.

As to `NC(=O)[C@@H]1CCN1Cc1ccc(OCc2cccc(F)c2)cc1`, the IC50 was found to be 21 nM in assay [1] and 26800 nM in assay [2]. In assay [3], the Ratio IC50 came out at 1280.

As to `NC(=O)[C@@H]1CCCN1Cc1ccc(OCc2cccc(F)c2)cc1`, the values for the half-inhibitory concentration (IC50) in assay [1] and in assay [2] were 204 nM and 34200 nM, respectively. Besides, in assay [3], the Ratio IC50 was determined as 168.

Turning to `NC(=O)[C@@H]1COCCN1Cc1ccc(OCc2cccc(F)c2)cc1F`, the IC50 in assay [1] was determined as 2870 nM; in assay [2], 57600 nM. Also, the Ratio IC50 in assay [3] worked out at 20.

On to `NC(=O)[C@@H]1COCCN1Cc1ccc(OCc2cccc(F)c2)cc1`, for which the IC50 in assay [1] stood at 5410 nM.

For the molecule `NC(=O)[C@@H]1CC(F)(F)CN1Cc1ccc(OCc2cccc(F)c2)cc1`, the IC50 was found to be 1070 nM in assay [1] and 14500 nM in assay [2]. Also, in assay [3], the Ratio IC50 amounted to 14.

For `Cc1cc(OCc2cccc(F)c2)ccc1CN1CC[C@H]1C(N)=O`, the IC50 in assay [1] was determined as 258 nM; in assay [2], 8650 nM. The Ratio IC50 in assay [3] turned out to be 34.
